Source: patent US20250118779A1, “BIPOLAR PARAMETHOXYPHENYL CONTAINING REDOX MOLECULES” (ExxonMobil Technology and Engineering Company, priority 2023, published 2025)
Values after ≈ are worked out from the molar mass of the structure shown.

Assays:
[1] = Room temperature solubility in acetonitrile; format: physicochemical; conditions: moles per liter of solution; for solubility: organic solvent or mixture, read-out: MeCN solubility
[2] = Cyclic voltammetry screening (3-electrode beaker cell); format: physicochemical; conditions: 0.1 M TBAPF6 in acetonitrile; for E1/2^0 (half-cell potential, arithmetic average of anode and cathode peaks): 5 mM redox species, Ag|10 mM AgNO3 reference; for E1/2^0 (half-cell potential, arithmetic average of anode and cathode peaks) / redox potential, E1/2: 100 mV/s; for redox potential, E1/2 / Redox activity of the bipolar molecule (in words): 5 mM; for redox potential, E1/2: vs Ag|10 mM AgNO3 in acetonitrile (−0.09 V vs Fc|Fc+); for Ecell^0 (cell voltage) / E^1/2, anolyte (negative) redox event / E^1/2, catholyte (positive) redox event: bipolar compound 5 mM; for E^1/2, anolyte (negative) redox event / E^1/2, catholyte (positive) redox event: vs Ag|10 mM AgNO3; for Redox activity of the bipolar molecule (in words): cyclic voltammogram

Structure (SMILES)	E1/2^0 (half-cell potential, arithmetic average of anode and cathode peaks) [2]	redox potential, E1/2 [2]	Ecell^0 (cell voltage) [2] [V]	E^1/2, anolyte (negative) redox event [2] [V]	E^1/2, catholyte (positive) redox event [2]	other results
Cc1cccc2ccccc12 [1-methylnaphthalene, reference compound]	−2.909 V vs Ag|Ag^+	−2.909 V	–	–	–	MeCN solubility ([1]; acetonitrile solvent): miscible
COc1ccc(OCCc2cccc3ccccc23)cc1 [Entry 1]	–	–	3.82	−2.857	+0.958 V	–
COc1ccc(OCc2cccc3ccccc23)cc1 [Entry 2]	–	–	–	–	+0.981 V	Redox activity of the bipolar molecule (in words) [2]: non-redox active molecule
COc1ccc(OCCc2cccc(-c3ccccc3)c2)cc1 [Entry 3]	–	–	3.93	−2.976	+0.953 V	–
COc1ccc(OCCc2ccccc2-c2ccccc2)cc1 [Entry 4]	–	–	3.82	−1.217	+0.934 V	–
COc1ccc(OCc2ccccc2-c2ccccc2)cc1 [Entry 5]	–	–	–	–	+0.985 V	Redox activity of the bipolar molecule (in words) [2]: non-redox active molecule
COc1ccc(OCCc2ccc(/C=C/c3ccccc3)cc2)cc1 [Entry 6]	–	–	3.73	−2.632	+1.096 V	–
COc1ccc(CCOc2ccc(/C=C/c3ccccc3)cc2)cc1 [Entry 7]	–	–	–	−2.665	–	Redox activity of the bipolar molecule (in words) [2]: non-redox active molecule
c1ccc(-c2ccccc2)cc1 [biphenyl, reference compound]	−2.987 V vs Ag|Ag^+	−2.987 V	–	–	–	solubility [1]: 1730 mM (≈ 267 mg/mL)
COc1ccc(OC)cc1 [p-dimethoxybenzene, reference compound]	+0.967 V vs Ag|Ag^+	+0.967 V	–	–	–	solubility [1]: 600 mM (≈ 82.9 mg/mL)
C(=C\c1ccccc1)/c1ccccc1 [trans-stilbene, reference compound]	−2.571 V vs Ag|Ag^+	−2.571 V	–	–	–	solubility [1]: 1070 mM (≈ 193 mg/mL)
